The test system of one data set is HEK293 cells. The data set can be described thus: cells. Particulars: for cytotoxicity in HEK293: Figure 4, MTT; for IC50: read-out: IC50 toxicity HEK293T; for % Toxicity HEK293T: 0.1 μM, n = 3; for cytotoxicity at 0.1 µM: read-out: % Toxicity HEK293T, 0.1 μM, 72 h, MTT, n = 3. As to the method:
(§1) HEK293, U87MG, and HL-60 cell lines were seeded in a flat-bottom 96-well plate at a density of 10,000 cells per well. […] All compounds were incubated at 0.1 μM in 200 μL of culture medium supplemented with 10% FBS, in a flat-bottom 96-well plate at a density of 10,000 cells per well, at 37 °C for 72 h. Next, 20 μL of a 5 mg/mL MTT solution was added, and the cells were incubated at 37 °C for 4 h. Then, they were solubilized with 10% sodium dodecyl sulfate (SDS) in 0.1 mM HCl and incubated overnight at 37 °C. Formazan absorbance of each well was measured using the EPOCH microplate reader (Biotek, Winooski, VT, USA) at a wavelength of 570 nm. […]
(§2) promyelocytic leukemia cells (HL-60) were maintained at 5% CO2 and 37 °C in DMEM, EMEM and RPMI medium, respectively containing 10% Fetal Bovine Serum and 100 U/mL penicillin and 100 […]
(§3) Cell viability: ([MTT - (3-(4,5-dimethylthiazol-2-yl)-2,5-diphenyltetrazolium bromide) - formazan] HEK293, U87MG, and HL-60 cells were first quantified to determine the exact number to be used in […]
(§4) with the Beer-Lambert(1).
(§5) HEK293, U87MG and HL-60 cell lines were seed in a flat-bottom 96-wells plate at a density of 10,000 […]
(§6) concentrations (0.001 μM to 10 μM) in 200 μL of respective culture medium supplemented with 10% fetal bovine serum (FBS), at 37 °C for 72 hours. Subsequently, 20 μL of 5 mg/mL MTT solution was added to each well, and cells were incubated at 37 °C for 4 h. The resulting formazan crystals were then solubilized with 10% sodium dodecyl sulfate (SDS) in 0.1 mM HCl, followed by overnight incubation at 37 °C. Untreated cells were used as the control, 0.1% of dimethyl sulfoxide (DMSO) as the vehicle control, and 0.2 % of Triton X-100 as a positive control for cell death. IC 50 toxicity values […]
(§7) same conditions described in the previous paragraph. […]
(§8) determined IC50. The stimulation with both CB ligands was performed simultaneously.
(§9) All compounds were incubated at 0.1 μM in 200 μL of culture medium supplemented with 10% FBS, in a flat-bottom 96-well plate at a density of 10,000 cells per well, at 37°C for 72 hours. Next, 20 μL of a 5 mg/mL MTT solution was added, and the cells were incubated at 37°C for 4 hours. Then, they were solubilized with 10% sodium dodecyl sulfate (SDS) in 0.1 mM HCl and incubated overnight at 37°C. Formazan absorbance of each well was measured using the EPOCH microplate reader (Biotek, USA) at a wavelength of 570 nm.
(§10) [1]Mosorov, V., The Lambert-Beer law in time domain form and its application.

In a further data set the test system is U87MG cells. The data set can be described thus: cells. The note with it: 72 h; for cytotoxicity in U87MG: Figure 4, MTT, 0.001 μM to 10 μM; for cytotoxicity at 0.1 µM: read-out: % Toxicity U87MG, 0.1 μM, 72 h, MTT, n = 3. The method, then: as §1, §2, §3, §4, §5, §6, §7, §8, §9, §10
The next data set concerns HL-60 cells. The data set can be described thus: cells. The note with it: for cytotoxicity in HL-60: Figure 4, MTT; for % Toxicity HL-60: 0.1 μM, n = 3; for cytotoxicity at 0.1 µM: read-out: % Toxicity HL-60. The method, then: as §1, §2, §3, §4, §5, §6, §7, §8, §9, §10
Data set [1] deals with T1, human recombinant cannabinoid CB2 receptor (Homo sapiens, UniProt P34972).
T1 construct: purchased Perkin Elmer Inc., Singapore Pte; Ltd. RBXCB2M400UA; host or cells: HEK293-EBNA cell membranes (overexpressing)
T1 sequence (P34972 whole entry): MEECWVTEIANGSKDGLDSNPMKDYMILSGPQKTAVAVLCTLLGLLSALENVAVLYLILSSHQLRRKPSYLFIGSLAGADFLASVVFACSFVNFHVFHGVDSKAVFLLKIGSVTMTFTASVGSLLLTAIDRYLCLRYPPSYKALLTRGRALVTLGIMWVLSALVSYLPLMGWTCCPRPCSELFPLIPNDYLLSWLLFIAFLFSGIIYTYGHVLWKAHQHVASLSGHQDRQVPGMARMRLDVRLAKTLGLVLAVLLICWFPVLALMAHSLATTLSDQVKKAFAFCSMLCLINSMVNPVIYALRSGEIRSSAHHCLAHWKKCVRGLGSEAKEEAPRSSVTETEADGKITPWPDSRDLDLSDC
The data set can be described thus: CB2 radioligand displacement binding assay ([3H]CP-55940). The note with it: for Ki: Cheng–Prusoff from IC50, [3H]CP-55940 0.5 nM; for Ki / IC50: mean ± SEM n = 3; for IC50: [3H]CP-55940 0.5 nM, hCB2 HEK293-EBNA membranes; for inhibition at 10 µM: displacement of [3H]CP-55940 at 10 μM compound, read-out: CB2 Max Tested µM (% Displacement). On the technique in general: Displacement assays read how much labelled ligand stays bound in the presence of the test substance.

The target in data set [2] is T2, human cannabinoid CB1 receptor (Homo sapiens, UniProt P21554).
T2 construct: purchased Perkin Elmer Inc., Singapore Pte; Ltd. RBHCB1M400UA; host or cells: HEK293-EBNA cell membranes (overexpressing)
T2 sequence (P21554 whole entry): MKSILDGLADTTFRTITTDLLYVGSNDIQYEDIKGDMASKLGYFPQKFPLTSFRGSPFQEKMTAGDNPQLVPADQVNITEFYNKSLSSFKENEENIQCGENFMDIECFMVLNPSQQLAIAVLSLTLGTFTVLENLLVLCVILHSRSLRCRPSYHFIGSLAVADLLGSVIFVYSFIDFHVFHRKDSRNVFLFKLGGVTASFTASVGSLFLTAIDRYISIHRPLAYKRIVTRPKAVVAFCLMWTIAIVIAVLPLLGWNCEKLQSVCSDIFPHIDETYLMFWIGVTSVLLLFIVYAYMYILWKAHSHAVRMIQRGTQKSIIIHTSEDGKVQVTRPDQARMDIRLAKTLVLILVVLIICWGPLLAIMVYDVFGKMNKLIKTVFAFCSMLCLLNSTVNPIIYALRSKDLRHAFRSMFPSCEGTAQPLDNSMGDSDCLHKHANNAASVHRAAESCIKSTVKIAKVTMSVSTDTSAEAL
The data set can be described thus: biochemical. Format: binding. The note with it: for Ki: Cheng–Prusoff from IC50, [3H]CP-55940 0.5 nM, read-out: CB1 Ki; for Ki / IC50: mean ± SEM n = 3; for IC50: [3H]CP-55940 0.5 nM, hCB1 HEK293-EBNA membranes, read-out: CB1 IC50; for inhibition at 10 µM: displacement of [3H]CP-55940 at 10 μM compound, read-out: CB1 Max Tested µM (% Displacement).

The mark [3] stands for this setting: read-out: IC50 toxicity U87MG, MTT.
Setting [4] is: Homo sapiens, U-87 MG, read-out: IC50 toxicity U87MG, MTT, 72 h.

Values joined by “and” are separate entries in the source; they are usually repeats but may differ in a detail not shown here. Equal entries are not always repeated. Where two headings read alike, the source gives them in different places.

Broadly, the IC50 is the concentration that inhibits the measured activity by half. For orientation: Ki means the dissociation constant of the complex between target and ligand, obtained from inhibition or displacement.

As to `COc1ccc(C(=O)c2c(C)n(CCN3CCOCC3)c3cc(I)ccc23)cc1` [AM630, reference compound], in the data set on HEK293 cells (0.001 μM to 10 μM, 72 h), the “cytotoxicity in HEK293” value is “non-toxic”. Besides, the IC50 in the data set on HEK293 cells (MTT, 72 h, 0.001 μM to 10 μM) is > 10 µM; in the data set on U87MG cells (setting [3]), > 10 µM; in the data set with HL-60 cells (read-out: IC50 toxicity HL-60, MTT, 72 h, 0.001 μM to 10 μM), > 10 µM. Moreover, the “cytotoxicity in U87MG” value with U87MG cells was “non-toxic”. Further, in the data set on HL-60 cells (0.001 μM to 10 μM, 72 h), the “cytotoxicity in HL-60” value is recorded as “non-toxic”.
Regarding `O=C(c1cccc2ccccc12)n1c(-c2ccco2)nc2ccc(Cl)cc21` [Compound 4f′], in data set [1], the Ki was > 10 µM, the IC50 was > 10 µM and the inhibition at 10 µM amounted to 53.2%. The “% Toxicity HEK293T” value in the data set with HEK293 cells (72 h, MTT) is 50 ± 23%. In addition, in the data set with HEK293 cells (Homo sapiens, HEK293, 72 h), the cytotoxicity at 0.1 µM was 50%. In addition, in the data set with HL-60 cells (72 h, MTT), the “% Toxicity HL-60” value is 10 ± 19%. The cytotoxicity at 0.1 µM with HL-60 cells (Homo sapiens, HL-60, 72 h) turned out to be 10%. Further, in data set [2], the Ki is > 10 µM, the IC50 was > 10 µM and the inhibition at 10 µM was found to be 47.5%.
As for `O=C(c1cccc2ccccc12)n1c(-c2ccon2)nc2cc(Cl)ccc21` [Compound 4d], in data set [1], the Ki is > 10 µM, the IC50 is > 10 µM and the inhibition at 10 µM turned out to be 15%. The “% Toxicity HEK293T” value with HEK293 cells (72 h, MTT) is recorded as 10 ± 9%. Moreover, in the data set on HEK293 cells (Homo sapiens, HEK293, 72 h), the cytotoxicity at 0.1 µM came out at 10%. The “% Toxicity U87MG” value in the data set on U87MG cells (0.1 μM, MTT, n = 3) came to 50 ± 14%. The cytotoxicity at 0.1 µM in the data set with U87MG cells (Homo sapiens, U-87 MG) turned out to be 50%. Moreover, in data set [2], the Ki is ~1.86 µM and 1.86 µM; the IC50 was found to be 7.58 ± 4.21 µM; the inhibition at 10 µM is > 55%.
For `COc1cccc(-c2nc3cc(F)ccc3n2C(=O)c2cccc3ccccc23)c1` [Compound 5b, (5-fluoro-2-(3-methoxyphenyl)-1H-benzo[d]imidazol-1-yl)(naphthalen-1-yl)methanone], the Ki in data set [1] is > 10 µM; in data set [2], ~1.53 µM and 1.53 µM. In addition, the IC50 in data set [1] was > 10 µM; in data set [2] it was 6.23 ± 3.8 µM. The inhibition at 10 µM in data set [1] is 45%; in data set [2] it was > 55%. The cytotoxicity at 0.1 µM was found to be 75 ± 17% in the data set with HEK293 cells (Homo sapiens, HEK293, 72 h); 25 ± 14% in the data set with U87MG cells (Homo sapiens, U-87 MG); 45 ± 17% in the data set with HL-60 cells (Homo sapiens, HL-60, 72 h).
For `Cc1c(C(=O)c2cccc3ccccc23)c2cccc3c2n1C(CN1CCOCC1)CO3` (stereo not shown) [WIN-55212-2, reference compound], the “displacement of specific radioligand binding (nonspecific binding definition), CB2” value in data set [1] (10 μM unlabeled WIN-55212-2, cannabinoid receptors) is recorded as “at least 84%”. Besides, in the data set on HEK293 cells (0.001 μM to 10 μM, 72 h), the “cytotoxicity in HEK293” value is given as “harmlessness”. Further, the IC50 was > 10 µM in the data set on HEK293 cells (Homo sapiens, HEK293, 72 h); 0.2 µM in the data set with U87MG cells (setting [4]); 0.25 µM in the data set with U87MG cells (setting [3]); 1.39 µM in the data set on HL-60 cells (Homo sapiens, HL-60, 72 h, read-out: IC50 toxicity HL-60); 1.38 µM in the data set with HL-60 cells (Homo sapiens, HL-60, read-out: IC50 HL-60 cells as printed in the figure picture). Further, the “cytotoxicity in U87MG” value in the data set with U87MG cells was “exhibits cytotoxicity”. The cytotoxicity at 0.1 µM in the data set on U87MG cells (Homo sapiens, U-87 MG) is ~30%. Moreover, the “cytotoxicity in HL-60” value in the data set with HL-60 cells (0.001 μM to 10 μM, 72 h) was “exhibits cytotoxicity”.
On to `COc1cccc(-c2nc3ccc(Cl)cc3n2C(=O)c2cccc3ccccc23)c1` [4b′], for which the Ki was ~4.46 µM and 4.46 µM in data set [1]; > 10 µM in data set [2]. The IC50 in data set [1] is 6.76 ± 3.09 µM; in data set [2] it was > 10 µM. Besides, the inhibition at 10 µM in data set [1] amounted to 58%; in data set [2] it was 43%. The cytotoxicity at 0.1 µM in the data set on HEK293 cells (Homo sapiens, HEK293, 72 h) came out at 50 ± 11%; with U87MG cells (Homo sapiens, U-87 MG), 39 ± 20%; with HL-60 cells (Homo sapiens, HL-60, 72 h) it was 52%. Besides, the “% Toxicity HL-60” value in the data set with HL-60 cells (72 h, MTT) worked out at 52 ± 13%.
Turning to `O=C(c1cccc2ccccc12)n1c(-c2ccco2)nc2ccc(F)cc21` [Compound 5f′, (6-fluoro-2-(furan-2-yl)-1H-benzo[d]imidazol-1-yl)(naphthalen-1-yl)methanone], in data set [1], the Ki is > 10 µM, the IC50 is > 10 µM and the inhibition at 10 µM is 47%. Also, the cytotoxicity at 0.1 µM in the data set on U87MG cells (Homo sapiens, U-87 MG) was found to be 66%. Further, in the data set on U87MG cells (setting [4]), the IC50 worked out at 0.089 µM. Besides, the “% Toxicity HL-60” value in the data set with HL-60 cells (72 h, MTT) is recorded as “does not show any toxicity”. For the same molecule, in data set [2], the Ki is ~2.12 µM and 2.12 µM; the IC50 came out at 8.65 ± 3.11 µM; the inhibition at 10 µM was > 55%.
As for `Cc1ccc(-c2nc3cc(F)ccc3n2C(=O)c2cccc3ccccc23)o1` [Compound 5e, (5-fluoro-2-(5-methylfuran-2-yl)-1H-benzo[d]imidazol-1-yl)(naphthalen-1-yl)methanone], the figures for the Ki in data set [1] and in data set [2] were > 10 µM and 1.82 ± 1.64 µM, respectively. Besides, the IC50 in data set [1] was > 10 µM; in data set [2], 7.4 ± 3.28 µM. The inhibition at 10 µM in data set [1] was 38.5%; in data set [2], > 55%. In addition, the cytotoxicity at 0.1 µM in the data set with HEK293 cells (Homo sapiens, HEK293, 72 h) came out at 55 ± 23%; in the data set on U87MG cells (Homo sapiens, U-87 MG) it was 39 ± 18%; in the data set with HL-60 cells (Homo sapiens, HL-60, 72 h), 50 ± 19%.

Source of the values: publication PMC12564498, “Benzo[d]imidazole–Naphthalen-Arylmethanone Regioisomers as CB1 Ligands: Evaluation of Agonism via an Indirect Cytotoxicity-Based Approach” (International Journal of Molecular Sciences, 2025).
